From ChEMBL document CHEMBL1159211, “Antifungal evaluation of pseudolaric acid B, a major constituent of Pseudolarix kaempferi” (J Nat Prod, 1995)
Active and inactive are the calls of the source. The calls are words filed in the database; no cut-off is given here.

Assays:
Cryptococcus neoformans = test: Antimicrobial activity against Cryptococcus neoformans at 1 mg/mL by agar-well diffusion assay; type: functional
Staphylococcus aureus = test: Antimicrobial activity against Staphylococcus aureus at 1 mg/mL by agar-well diffusion assay; type: functional, organism-based
Pseudomonas aeruginosa = test: Antimicrobial activity against Pseudomonas aeruginosa at 1 mg/mL by agar-well diffusion assay; type: functional, organism-based
Aspergillus fumigatus = test: Antimicrobial activity against Aspergillus fumigatus at 1 mg/mL by agar-well diffusion assay; type: functional
Bacillus subtilis = test: Antimicrobial activity against Bacillus subtilis at 1 mg/mL by agar-well diffusion assay; type: functional, organism-based
Escherichia coli = test: Antimicrobial activity against Escherichia coli at 1 mg/mL by agar-well diffusion assay; type: functional, organism-based
[1] = test system: Trichophyton mentagrophytes; test: Antimicrobial activity against Trichophyton mentagrophytes at 1 mg/mL by agar-well diffusion assay; type: functional
Nannizzia gypsea = test: Antimicrobial activity against Microsporum gypseum at 1 mg/mL by agar-well diffusion assay; type: functional
Aspergillus flavus = test: Antimicrobial activity against Aspergillus flavus at 1 mg/mL by agar-well diffusion assay; type: functional
[2] = test system: Mycobacterium intracellulare; test: Antimicrobial activity against Mycobacterium intracellular at 1 mg/mL by agar-well diffusion assay; type: functional; settings: for zone of inhibition at 1000 µg/mL: read-out: IZ
Candida albicans [3] = test: Antimicrobial activity against Candida albicans at 1 mg/mL by agar-well diffusion assay; type: functional; settings: for zone of inhibition at 1000 µg/mL: Candida albicans, read-out: IZ
Saccharomyces cerevisiae = test: Antimicrobial activity against Saccharomyces cerevisiae at 1 mg/mL by agar-well diffusion assay; type: functional, organism-based
Candida albicans [4] = test: Antifungal activity against Candida stellatoidea SA-I by twofold serial broth dilution method; type: functional
Mus musculus [5] = test: Toxicity in CD1 mouse assessed as body weight at 40 mg/kg, ip administered for 14 consecutive days measured after day 21; type: organism-based; parameters: dose 40 mg/kg, route intraperitoneal; settings: in vivo
Candida tropicalis [6] = test: Antifungal activity against Candida tropicalis ATCC 20021 by twofold serial broth dilution method; type: functional
Candida parapsilosis [7] = test: Antifungal activity against Candida parapsilosis ATCC 20224 at 1 mg/mL by agar-well diffusion assay; type: functional
Mus musculus [8] = test: Toxicity in CD1 mouse assessed as body weight at 40 mg/kg, ip administered for 14 consecutive days measured after day 14; type: organism-based; parameters: dose 40 mg/kg, route intraperitoneal; settings: in vivo
Yarrowia deformans [9] = test: Antifungal activity against Torulopsis petrophilum ATCC 20225 at 1 mg/mL by agar-well diffusion assay; type: functional
Torula [10] = test: Antifungal activity against Torula cremoris NRRL 7495 by twofold serial broth dilution method; type: functional
Candida albicans [11] = test: Antifungal activity against Candida albicans ATCC 10231 by twofold serial broth dilution method; type: functional
Candida tropicalis [12] = test: Antifungal activity against Candida tropicalis ATCC 20326 at 1 mg/mL by agar-well diffusion assay; type: functional
Candida parapsilosis [13] = test: Antifungal activity against Candida parapsilosis ATCC 20224 by twofold serial broth dilution method; type: functional; settings: Lodderomyces parapsilosis
Starmerella magnoliae = test: Antifungal activity against Candida magnoliae ATCC 12573 at 1 mg/mL by agar-well diffusion assay; type: functional
Yarrowia deformans [14] = test: Antifungal activity against Torulopsis petrophilum ATCC 20225 by twofold serial broth dilution method; type: functional
Candida tropicalis [15] = test: Antifungal activity against Candida tropicalis ATCC 20326 by twofold serial broth dilution method; type: functional
Torula [16] = test: Antifungal activity against Torula cremoris NRRL 7495 at 1 mg/mL by agar-well diffusion assay; type: functional
Candida tropicalis [17] = test: Antifungal activity against Candida tropicalis ATCC 20021 at 1 mg/mL by agar-well diffusion assay; type: functional
Candida albicans [18] = test: Antifungal activity against Candida albicans B311 by twofold serial broth dilution method; type: functional
Candida albicans [19] = test: Antifungal activity against Candida albicans ATCC 10231 at 1 mg/mL by agar-well diffusion assay; type: functional
Candida tropicalis [20] = test: Antifungal activity against Candida tropicalis LM 64 by twofold serial broth dilution method; type: functional
Candida albicans [21] = test: Antifungal activity against Candida stellatoidea SA-I at 1 mg/mL by agar-well diffusion assay; type: functional
Mus musculus [22] = test: Toxicity in CD1 mouse assessed as body weight at 40 mg/kg, ip after day 1; type: organism-based; parameters: dose 40 mg/kg, route intraperitoneal; settings: in vivo
Candida albicans [23] = test: Antifungal activity against Candida albicans B311 at 1 mg/mL by agar-well diffusion assay; type: functional
Candida tropicalis [24] = test: Antifungal activity against Candida tropicalis LM 64 at 1 mg/mL by agar-well diffusion assay; type: functional

C/C(=C\C=C\[C@@]1(C)OC(=O)[C@]23CC=C(C(=O)O)CC[C@]2(O)[C@H]1CC3)C(=O)O [DEMETHOXYDEACETOXYPSEUDOLARIC ACID B]
Activity (Cryptococcus neoformans): inactive | Activity (Staphylococcus aureus): inactive | Activity (Pseudomonas aeruginosa): inactive | Activity (Aspergillus fumigatus): inactive | Activity (Bacillus subtilis): inactive | Activity (Escherichia coli): inactive | zone of inhibition at 1000 µg/mL ([1]; Trichophyton mentagrophytes, read-out: IZ): 3 mm | Activity (Nannizzia gypsea): inactive | Activity (Aspergillus flavus): inactive | zone of inhibition at 1000 µg/mL [2]: 1 mm | zone of inhibition at 1000 µg/mL (Candida albicans [3]): < 1 mm | Activity (Saccharomyces cerevisiae): inactive

COC(=O)C1=CC[C@@]23CC[C@@H]([C@@](C)(/C=C/C=C(\C)C(=O)[O-])OC2=O)[C@@]3(OC(C)=O)CC1.[K+] [POTASSIUM PSEUDOLARATE B]
MFC (Candida albicans [4]): 6.25 µg/mL | MIC (Candida albicans [4]): 3.12 µg/mL | Activity (Mus musculus [5]): 25.6 g | MFC (Candida tropicalis [6]): 6.25 µg/mL | MIC (Candida tropicalis [6]): 3.12 µg/mL | inhibition zone (IZ) (Candida parapsilosis [7]): 7 mm | Activity (Mus musculus [8]): 25.4 g | inhibition zone (IZ) (Yarrowia deformans [9]): 7 mm | MFC (Torula [10]): 12.5 µg/mL | MIC (Torula [10]): 12.5 µg/mL | inhibition zone (IZ) (Aspergillus fumigatus): 3 mm | MFC (Candida albicans [11]): 6.25 µg/mL | MIC (Candida albicans [11]): 1.56 µg/mL | inhibition zone (IZ) (Candida tropicalis [12]): 7 mm | MFC (Candida parapsilosis [13]): 25 µg/mL | MIC (Candida parapsilosis [13]): 3.12 µg/mL | inhibition zone (IZ) (Starmerella magnoliae): <1 mm | MFC (Yarrowia deformans [14]): 12.5 µg/mL | MIC (Yarrowia deformans [14]): 0.78 µg/mL | inhibition zone (IZ) [1]: 7 mm | inhibition zone (IZ) (Nannizzia gypsea): 7 mm | MFC (Candida tropicalis [15]): 6.25 µg/mL | MIC (Candida tropicalis [15]): 1.56 µg/mL | inhibition zone (IZ) (Torula [16]): 3 mm | inhibition zone (IZ) (Candida tropicalis [17]): 7 mm | MFC (Candida albicans [18]): 6.25 µg/mL | MIC (Candida albicans [18]): 3.12 µg/mL | inhibition zone (IZ) (Candida albicans [19]): 7 mm | MFC (Candida tropicalis [20]): 6.25 µg/mL | MIC (Candida tropicalis [20]): 0.78 µg/mL | inhibition zone (IZ) (Candida albicans [21]): 7 mm | Activity (Mus musculus [22]): 24.2 g | inhibition zone (IZ) (Candida albicans [3]): 7 mm | inhibition zone (IZ) (Candida albicans [23]): 7 mm | inhibition zone (IZ) (Candida tropicalis [24]): >12 mm

COC(=O)C1=CC[C@@]23CC[C@@H]([C@@](C)(/C=C/C=C(\C)C(=O)[O-])OC2=O)[C@@]3(OC(C)=O)CC1.[Na+] [SODIUM PSEUDOLARATE B]
inhibition zone (IZ) (Aspergillus fumigatus): 3 mm | inhibition zone (IZ) [1]: 7 mm | inhibition zone (IZ) (Nannizzia gypsea): 7 mm | inhibition zone (IZ) (Candida albicans [3]): 7 mm

CC(=O)O[C@]12CCC(C(=O)O)=CC[C@]13CC[C@H]2[C@@](C)(/C=C/C=C(\C)C(=O)O)OC3=O [PSEUDOLARIC ACID C2]
Activity (Cryptococcus neoformans): inactive | Activity (Staphylococcus aureus): inactive | Activity (Pseudomonas aeruginosa): inactive | Activity (Aspergillus fumigatus): inactive | Activity (Bacillus subtilis): inactive | Activity (Escherichia coli): inactive | Activity [1]: inactive | Activity (Nannizzia gypsea): inactive | Activity (Aspergillus flavus): inactive | Activity [2]: inactive | zone of inhibition at 1000 µg/mL (Candida albicans [3]): < 1 mm | Activity (Saccharomyces cerevisiae): inactive

COC(=O)C1=CC[C@@]23CC[C@@H]([C@@](C)(/C=C/C=C(\C)C(=O)O)OC2=O)[C@@]3(O)CC1 [PSEUDOLARIC ACID C]
zone of inhibition at 1000 µg/mL (Cryptococcus neoformans; read-out: IZ): 1 mm | Activity (Staphylococcus aureus): inactive | Activity (Pseudomonas aeruginosa): inactive | zone of inhibition at 1000 µg/mL (Aspergillus fumigatus; Aspergillus fumigatus, read-out: IZ): 1 mm | Activity (Bacillus subtilis): inactive | Activity (Escherichia coli): inactive | Activity [1]: inactive | Activity (Nannizzia gypsea): inactive | zone of inhibition at 1000 µg/mL (Aspergillus flavus; read-out: IZ): 1 mm | zone of inhibition at 1000 µg/mL [2]: 1 mm | zone of inhibition at 1000 µg/mL (Candida albicans [3]): 1 mm | Activity (Saccharomyces cerevisiae): inactive
